Data published in PubChem BioAssay (NCI).
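Where inhibition never reached the appropriate level, the endpoint shown equals the highest concentration tested. Otherwise, values were interpolated linearly from a five-concentration, 48-hour dose response in 96-well plates. Abbreviation: GI50, concentration required for 50% inhibition of growth. At the TGI there is no net growth.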

Tests used:
Assay in all cases: NCI tumour cell line growth inhibition, 48 h
NCI-H522 lung = system: NCI-H522 lung
HT29 colon = system: HT29 colon
MOLT-4 leukemia = system: MOLT-4 leukemia
HOP-92 NSCLC = system: HOP-92 NSCLC
K-562 leukemia = system: K-562 leukemia
DU-145 prostate = system: DU-145 prostate
SK-MEL-28 melanoma = system: SK-MEL-28 melanoma
MDA-MB-231 breast = system: MDA-MB-231 breast
EKVX NSCLC = system: EKVX NSCLC
SR leukemia = system: SR leukemia
NCI-H460 lung = system: NCI-H460 lung
HL-60(TB) leukemia = system: HL-60(TB) leukemia
BT-549 breast = system: BT-549 breast
HS 578T breast = system: HS 578T breast
SK-OV-3 ovarian = system: SK-OV-3 ovarian
SW-620 colon = system: SW-620 colon
U251 CNS = system: U251 CNS
SK-MEL-5 melanoma = system: SK-MEL-5 melanoma
SF-539 CNS = system: SF-539 CNS
ACHN renal = system: ACHN renal
SN12C renal = system: SN12C renal
T-47D breast = system: T-47D breast
IGROV1 ovarian = system: IGROV1 ovarian
PC-3 prostate = system: PC-3 prostate
OVCAR-3 ovarian = system: OVCAR-3 ovarian
SNB-75 CNS = system: SNB-75 CNS
M14 melanoma = system: M14 melanoma
OVCAR-8 ovarian = system: OVCAR-8 ovarian
KM12 colon = system: KM12 colon
MCF7 breast = system: MCF7 breast
SF-295 CNS = system: SF-295 CNS
CCRF-CEM leukemia = system: CCRF-CEM leukemia
HCC-2998 colon = system: HCC-2998 colon
NCI/ADR-RES ovarian = system: NCI/ADR-RES ovarian
NCI-H23 lung = system: NCI-H23 lung
A498 renal = system: A498 renal
SF-268 CNS = system: SF-268 CNS
UACC-257 melanoma = system: UACC-257 melanoma
SNB-19 CNS = system: SNB-19 CNS
RXF 393 renal = system: RXF 393 renal
UO-31 renal = system: UO-31 renal
NCI-H226 lung = system: NCI-H226 lung
MDA-MB-435 = system: MDA-MB-435
RPMI-8226 leukemia = system: RPMI-8226 leukemia
MALME-3M melanoma = system: MALME-3M melanoma
A549 NSCLC = system: A549 NSCLC
HCT-116 colon = system: HCT-116 colon
UACC-62 melanoma = system: UACC-62 melanoma
HOP-62 NSCLC = system: HOP-62 NSCLC
COLO 205 colon = system: COLO 205 colon
LOX IMVI melanoma = system: LOX IMVI melanoma
OVCAR-5 ovarian = system: OVCAR-5 ovarian
786-0 renal = system: 786-0 renal
SK-MEL-2 melanoma = system: SK-MEL-2 melanoma
OVCAR-4 ovarian = system: OVCAR-4 ovarian
HCT-15 colon = system: HCT-15 colon

C=C1C(=O)O[C@H]2[C@H]1CC/C(CNC(=O)/C=C/c1cc(OC)c(OC)c(OC)c1)=C\CC[C@@]1(C)O[C@@H]21
GI50 (NCI-H522 lung): 0.232 µM
TGI (NCI-H522 lung): 1.1 µM
GI50 (HT29 colon): 1.59 µM
TGI (HT29 colon): 8.31 µM
GI50 (MOLT-4 leukemia): 2.09 µM
TGI (MOLT-4 leukemia): 6.22 µM
GI50 (HOP-92 NSCLC): 0.257 µM
TGI (HOP-92 NSCLC): 5.44 µM
GI50 (K-562 leukemia): 0.601 µM
TGI (K-562 leukemia): 4.13 µM
GI50 (DU-145 prostate): 4.95 µM
TGI (DU-145 prostate): 17.3 µM
GI50 (SK-MEL-28 melanoma): 1.43 µM
TGI (SK-MEL-28 melanoma): 3.64 µM
GI50 (MDA-MB-231 breast): 3.01 µM
TGI (MDA-MB-231 breast): 14.1 µM
GI50 (EKVX NSCLC): 2.22 µM
TGI (EKVX NSCLC): 13.8 µM
GI50 (SR leukemia): 0.383 µM
TGI (SR leukemia): 9.38 µM
GI50 (NCI-H460 lung): 9.19 µM
TGI (NCI-H460 lung): 24.5 µM
GI50 (HL-60(TB) leukemia): 0.925 µM
TGI (HL-60(TB) leukemia): 3.3 µM
GI50 (BT-549 breast): 1.51 µM
TGI (BT-549 breast): 3.95 µM
GI50 (HS 578T breast): 4.54 µM
TGI (HS 578T breast): 27.9 µM
GI50 (SK-OV-3 ovarian): 17.2 µM
TGI (SK-OV-3 ovarian): 33.3 µM
GI50 (SW-620 colon): 0.615 µM
TGI (SW-620 colon): 2.49 µM
GI50 (U251 CNS): 4.23 µM
TGI (U251 CNS): 16.4 µM
GI50 (SK-MEL-5 melanoma): 2.49 µM
TGI (SK-MEL-5 melanoma): 7.33 µM
GI50 (SF-539 CNS): 2 µM
TGI (SF-539 CNS): 5.93 µM
GI50 (ACHN renal): 1.27 µM
TGI (ACHN renal): 2.89 µM
GI50 (SN12C renal): 3.46 µM
TGI (SN12C renal): 14.3 µM
GI50 (T-47D breast): 2.25 µM
TGI (T-47D breast): 14.8 µM
GI50 (IGROV1 ovarian): 3.22 µM
TGI (IGROV1 ovarian): 13.9 µM
GI50 (PC-3 prostate): 6.24 µM
TGI (PC-3 prostate): 20 µM
GI50 (OVCAR-3 ovarian): 0.333 µM
TGI (OVCAR-3 ovarian): 1.44 µM
GI50 (SNB-75 CNS): 2.93 µM
TGI (SNB-75 CNS): 22.9 µM
GI50 (M14 melanoma): 1.21 µM
TGI (M14 melanoma): 2.87 µM
GI50 (OVCAR-8 ovarian): 4.09 µM
TGI (OVCAR-8 ovarian): 16.1 µM
GI50 (KM12 colon): 7.62 µM
TGI (KM12 colon): 21.1 µM
GI50 (MCF7 breast): 0.531 µM
TGI (MCF7 breast): 10.8 µM
GI50 (SF-295 CNS): 4.61 µM
TGI (SF-295 CNS): 18.2 µM
GI50 (CCRF-CEM leukemia): 0.478 µM
TGI (CCRF-CEM leukemia): 4.37 µM
GI50 (HCC-2998 colon): 2.95 µM
TGI (HCC-2998 colon): 6.97 µM
GI50 (NCI/ADR-RES ovarian): 24.4 µM
TGI (NCI/ADR-RES ovarian): > 100 µM
GI50 (NCI-H23 lung): 1.58 µM
TGI (NCI-H23 lung): 3.58 µM
GI50 (A498 renal): 4.1 µM
TGI (A498 renal): 15.7 µM
GI50 (SF-268 CNS): 3.59 µM
TGI (SF-268 CNS): 15.6 µM
GI50 (UACC-257 melanoma): 1.76 µM
TGI (UACC-257 melanoma): 5.72 µM
GI50 (SNB-19 CNS): 11.9 µM
TGI (SNB-19 CNS): 32 µM
GI50 (RXF 393 renal): 0.298 µM
TGI (RXF 393 renal): 1.88 µM
GI50 (UO-31 renal): 1.55 µM
TGI (UO-31 renal): 4.08 µM
GI50 (NCI-H226 lung): 7.72 µM
TGI (NCI-H226 lung): 28.7 µM
GI50 (MDA-MB-435): 2.33 µM
TGI (MDA-MB-435): 13.5 µM
GI50 (RPMI-8226 leukemia): 1.59 µM
TGI (RPMI-8226 leukemia): 5.47 µM
GI50 (MALME-3M melanoma): 1.34 µM
TGI (MALME-3M melanoma): 3.44 µM
GI50 (A549 NSCLC): 8.04 µM
TGI (A549 NSCLC): 23.7 µM
GI50 (HCT-116 colon): 0.76 µM
TGI (HCT-116 colon): 2.1 µM
GI50 (UACC-62 melanoma): 0.73 µM
TGI (UACC-62 melanoma): 2.92 µM
GI50 (HOP-62 NSCLC): 5.29 µM
TGI (HOP-62 NSCLC): 21.9 µM
GI50 (COLO 205 colon): 0.618 µM
TGI (COLO 205 colon): 2.45 µM
GI50 (LOX IMVI melanoma): 1.28 µM
TGI (LOX IMVI melanoma): 2.63 µM
GI50 (OVCAR-5 ovarian): 2.44 µM
TGI (OVCAR-5 ovarian): 12.9 µM
GI50 (786-0 renal): 1.29 µM
TGI (786-0 renal): 2.9 µM
GI50 (SK-MEL-2 melanoma): 1.73 µM
TGI (SK-MEL-2 melanoma): 7.18 µM
GI50 (OVCAR-4 ovarian): 1.51 µM
TGI (OVCAR-4 ovarian): 10.5 µM
GI50 (HCT-15 colon): 2.96 µM
TGI (HCT-15 colon): 13.5 µM
